Columns and labels:
[1] = target: Prostaglandin E2 receptor EP4 subtype (Homo sapiens, UniProt P35408); experiment: hEP4 cAMP Assay
Procedure: Cells are counted washed and resuspended in assay buffer (AB; HBSS, 20 mM HEPES, 0.2% BSA; 2 mM IBMX). […] Plate is pre-incubated 45 minutes at RT. Subsequently, 2.5 microliters of PGE2 (final conc. 6 nM) are transferred into the assay plate. Plate is incubated 30 minutes at RT. […] For each compound concentration the percentage of cAMP compared to DMSO control value as average ±STDEV (each concentration is measured in duplicate) is calculated.

[2] = target: Prostaglandin E2 receptor EP2 subtype (Homo sapiens, UniProt P43116); experiment: hEP2 cAMP Assay
Procedure: Cells are counted washed and resuspended in assay buffer (AB; HBSS, 20 mM HEPES, 0.2% BSA; 2 mM IBMX). […] Plate is pre-incubated 45 minutes at RT. […] Plate is incubated 30 minutes at RT.

Chain of Prostaglandin E2 receptor EP2 subtype (P43116 whole entry): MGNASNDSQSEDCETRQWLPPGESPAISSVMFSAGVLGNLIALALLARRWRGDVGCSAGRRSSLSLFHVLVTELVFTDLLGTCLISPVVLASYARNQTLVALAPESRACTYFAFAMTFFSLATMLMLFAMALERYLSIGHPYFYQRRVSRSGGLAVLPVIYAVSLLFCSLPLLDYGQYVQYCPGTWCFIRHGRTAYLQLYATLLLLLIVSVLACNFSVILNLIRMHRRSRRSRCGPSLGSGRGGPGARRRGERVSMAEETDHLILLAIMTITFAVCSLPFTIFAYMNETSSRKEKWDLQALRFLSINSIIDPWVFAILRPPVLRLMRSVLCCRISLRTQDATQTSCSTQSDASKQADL
Chain of Prostaglandin E2 receptor EP4 subtype (P35408 whole entry): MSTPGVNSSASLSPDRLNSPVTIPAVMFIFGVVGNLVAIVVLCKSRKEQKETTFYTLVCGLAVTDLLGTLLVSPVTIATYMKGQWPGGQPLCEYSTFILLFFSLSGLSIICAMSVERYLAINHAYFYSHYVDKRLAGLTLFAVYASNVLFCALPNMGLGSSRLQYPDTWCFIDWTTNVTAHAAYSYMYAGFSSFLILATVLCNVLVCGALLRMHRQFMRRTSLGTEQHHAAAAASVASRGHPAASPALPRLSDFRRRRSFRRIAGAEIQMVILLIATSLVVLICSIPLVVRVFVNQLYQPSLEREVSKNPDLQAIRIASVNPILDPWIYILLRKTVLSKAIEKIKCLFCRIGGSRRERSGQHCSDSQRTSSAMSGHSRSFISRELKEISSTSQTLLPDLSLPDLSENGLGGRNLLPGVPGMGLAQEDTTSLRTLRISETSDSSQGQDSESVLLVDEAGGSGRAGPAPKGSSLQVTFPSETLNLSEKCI

IC50 [1] [nM] | IC50 [2] [nM] | Structure (SMILES)
170 | 665 | COc1c(CCNc2cc(-c3ccc(CC(=O)O)c(CC(C)C)c3)ncn2)cc2ccsc2c1F [US11839613, Example 410]
139 | 33 | C#Cc1cc2c(cc1CCNc1cc(-c3ccc(C(=O)O)c(OCC)c3)ncn1)OCCO2 [US11839613, Example 439]
43 | 549 | COc1cc2ccccc2c(C)c1CCNc1cc(-c2ccc(CC(=O)O)c(OC(F)F)c2)ncn1 [US11839613, Example 443]
356 | 226 | CCOc1cc2c(cc1CCNc1cc(-c3ccc(CC(=O)O)c(OC(C)C)c3)ncn1)OCCO2 [US11839613, Example 425]
72 | 10 | COc1cc2c(c(C)c1CCNc1cc(-c3ccc(C(=O)O)c(OC(C)C)c3)ncn1)OCCO2 [US11839613, Example 432]
87 | 486 | CC(C)Cc1cc(-c2cc(NCCc3ccc4sccc4c3F)ncn2)ccc1CC(=O)O [US11839613, Example 409]
88 | 505 | CC(C)Cc1cc(-c2cc(NCCc3cc(F)c4sccc4c3)ncn2)ccc1C(=O)O [US11839613, Example 414]
31 | 21 | COc1cc2c(c(C)c1CCNc1cc(-c3ccc(CC(=O)O)c(OC(F)F)c3)ncn1)OCCO2 [US11839613, Example 441]
38 | 119 | CC(C)Cc1cc(-c2cc(NCCc3ccc4sccc4c3F)ncn2)ccc1C(=O)O [US11839613, Example 413]
79 | 57 | CCOc1cc2c(cc1CCNc1cc(-c3ccc(CC(=O)O)c(CC(C)C)c3)ncn1)OCCO2 [US11839613, Example 412]
43 | 460 | CCOc1cc(-c2cc(NCCc3ccc4scc(Cl)c4c3)ncn2)ccc1CC(=O)O [US11839613, Example 431]
– | 325 | COc1cc2c(cc1CCNc1cc(-c3ccc(CC(=O)O)c(CC(C)C)c3)ncn1)OCCO2 [US11839613, Example 411]
– | 22 | COc1cc2c(c(C)c1CCNc1cc(-c3ccc(CC(=O)O)c(OC(C)C)c3)ncn1)OCCO2 [US11839613, Example 426]
95 | – | COc1cc(-c2cc(NCCc3c(OC)cc4c(c3C)OCCO4)ncn2)ccc1CC(=O)O [US11839613, Example 434]
– | 224 | COc1cc2c(c(F)c1CCNc1cc(-c3ccc(CC(=O)O)c(OC(F)F)c3)ncn1)OCCO2 [US11839613, Example 442]
57 | 106 | COc1c(CCNc2cc(-c3ccc(C(=O)O)c(CC(C)C)c3)ncn2)cc2ccsc2c1F [US11839613, Example 415]

IC50 [1] [nM] | IC50 [2] [nM] | Structure (SMILES)
27 | 247 | CCOc1cc(-c2cc(NCCc3ccc4sccc4c3F)ncn2)ccc1OCCC(=O)O [US11839613, Example 421]
104 | 525 | CCc1cc(-c2cc(NCCc3c(OC)cc4ccccc4c3C)ncn2)ccc1CC(=O)O [US11839613, Example 445]
26 | 55 | COc1cc2ccccc2c(C)c1CCNc1cc(-c2ccc(C(=O)O)c(OC3CC3)c2)ncn1 [US11839613, Example 448]
323 | – | CCCc1cc(-c2cc(NCCc3ccc4sccc4c3F)ncn2)ccc1C(C)C(=O)O (racemic) [US11839613, Example 482]
18 | 492 | CCOc1cc(-c2cc(NCCc3cc(F)c4sccc4c3)ncn2)ccc1OCCC(=O)O [US11839613, Example 422]
13 | 57 | CCOc1cc(-c2cc(NCCc3cc4c(cc3OC(F)F)OCCO4)ncn2)sc1C(=O)O [US11839613, Example 433]
37 | 227 | COc1cc(-c2cc(NCCc3ccc4sccc4c3F)ncn2)ccc1OCCC(=O)O [US11839613, Example 437]
80 | 165 | COc1cc2c(cc1CCNc1cc(-c3ccc(CC(=O)O)c(OC(F)(F)F)c3)ncn1)OCCO2 [US11839613, Example 450]
80 | 22 | CCc1cc(-c2cc(NCCc3c(OC)cc4c(c3C)OCCO4)ncn2)ccc1CC(=O)O [US11839613, Example 444]
6 | 230 | CCOc1cc(-c2cc(NCCc3c(OC)cc4ccccc4c3C)ncn2)ccc1OCCC(=O)O [US11839613, Example 423]
50 | – | COc1cc2c(c(C)c1CCNc1cc(-c3ccc(CC(=O)O)c(OC(F)(F)F)c3)ncn1)OCCO2 [US11839613, Example 428]
98 | 160 | CCc1cc(-c2cc(NCCc3c(OC)cc4ccccc4c3C)ncn2)ccc1C(=O)O [US11839613, Example 446]
– | 16 | CCOc1cc2c(cc1CCNc1cc(-c3ccc(C(=O)O)c(OC4CC4)c3)ncn1)OCCO2 [US11839613, Example 447]
114 | – | COc1cc(-c2cc(NCCc3cc(F)c4sccc4c3)ncn2)ccc1CC(=O)O [US11839613, Example 475]
190 | – | CCOc1cc2c(cc1CCNc1cc(-c3ccc(CC(=O)O)c(OC(F)(F)F)c3)ncn1)OCCO2 [US11839613, Example 427]

Second part, the molecule before the results:

Structure (SMILES) | IC50 [1] [nM] | IC50 [2] [nM]
CCCc1cc(-c2cc(NCCc3cc4c(cc3OCC)OCCO4)ncn2)ccc1CC(=O)O [US11839613, Example 402] | 131 | 48
CCOc1cc(-c2cc(NCCc3ccc4sccc4c3F)ncn2)ccc1CC(=O)O [US11839613, Example 368] | 37 | 119
CCOc1cc2c(cc1CCNc1cc(-c3cc(F)c(CC(=O)O)c(OCC)c3)ncn1)OCCO2 [US11839613, Example 403] | 112 | 135
CCOc1cc(-c2cc(NCCc3cc4ccsc4c(F)c3OC)ncn2)ccc1CC(=O)O [US11839613, Example 406] | 101 | 220
CCOc1cc(-c2cc(NCCc3cc(F)c4sccc4c3)ncn2)sc1C(=O)O [US11839613, Example 362] | 1 | –
CCOc1cc(-c2cc(NCCc3ccc4sccc4c3F)ncn2)sc1C(=O)O [US11839613, Example 367] | 1 | 6
CCOc1cc(-c2cc(NCCc3c(OC)cc4c(c3F)OCCO4)ncn2)ccc1C(=O)O [US11839613, Example 435] | 80 | 28
CCOc1cc(-c2cc(NCCc3ccc4sccc4c3F)ncn2)ccc1C(=O)O [US11839613, Example 365] | 55 | 29
CCOc1cc(-c2cc(NCCc3cc4ccccc4cc3NC)ncn2)ccc1OCC(=O)O [US11839613, Example 274] | 462 | 1180
CCCc1cc(-c2cc(NCCc3ccc4sccc4c3F)ncn2)ccc1C(=O)O [US11839613, Example 378] | 66 | 110
CCOc1cc(-c2cc(NCCc3ccc4sccc4c3)ncn2)cc(F)c1CC(=O)O [US11839613, Example 370] | 81 | 312
CCOc1cc(-c2cc(NCCc3ccc4ccsc4c3C)ncn2)sc1C(=O)O [US11839613, Example 376] | 11 | 188
CCCc1cc(-c2cc(NCCc3c(OC)cc4c(c3C)OCCO4)ncn2)ccc1CC(=O)O [US11839613, Example 397] | – | 25
COc1cc2c(c(C)c1CCNc1cc(-c3ccc(C(=O)O)c(OC4CCC4)c3)ncn1)OCCO2 [US11839613, Example 396] | 20 | 1
CCOc1cc(-c2cc(NCCc3cc4c(cc3OC)OCCO4)ncn2)cc(F)c1CC(=O)O [US11839613, Example 373] | – | 286
O=C(O)c1ccc(-c2cc(NCCc3ccc4sccc4c3F)ncn2)cc1OC1CCC1 [US11839613, Example 366] | 47 | 30
CCOc1cc(-c2cc(NCCc3cc(C)c4sccc4c3)ncn2)sc1C(=O)O [US11839613, Example 391] | 6 | 243
CCOc1cc(-c2cc(NCCc3c(OC)cc4ccccc4c3F)ncn2)ccc1C(=O)O [US11839613, Example 101] | 35 | 102
CCCc1cc(-c2cc(NCCc3c(OC)cc4ccccc4c3C)ncn2)ccc1CC(=O)O [US11839613, Example 388] | 51 | 626
CCOc1cc(-c2cc(NCCc3ccc4sccc4c3F)ncn2)cc(F)c1CC(=O)O [US11839613, Example 375] | 66 | 294
COc1cc2c(cc1CCNc1cc(-c3ccc(CC(=O)O)c(OC)c3)ncn1)OCCO2 [US11839613, Example 383] | 270 | 650
CCCOc1cc(-c2cc(NCCc3ccc4sccc4c3F)ncn2)ccc1CC(=O)O [US11839613, Example 393] | 81 | 439
CCCc1cc(-c2cc(NCCc3c(OC)cc4ccccc4c3C)ncn2)ccc1C(=O)O [US11839613, Example 380] | 54 | 124
CCCc1cc(-c2cc(NCCc3cc4c(cc3OC)OCCO4)ncn2)ccc1C(=O)O [US11839613, Example 379] | 245 | 87
CCCOc1cc(-c2cc(NCCc3cc4ccsc4cc3OC)ncn2)ccc1CC(=O)O [US11839613, Example 392] | 111 | 156
COc1cc(-c2cc(NCCc3c(OC)cc4ccccc4c3C)ncn2)ccc1CC(=O)O [US11839613, Example 384] | 59 | 577
CCCc1cc(-c2cc(NCCc3cc4c(cc3OC)OCCO4)ncn2)ccc1C(C)C(=O)O (racemic) [US11839613, Example 401] | 236 | 739
COc1cc2c(c(C)c1CCNc1cc(-c3ccc(C(=O)O)c(SC)c3)ncn1)OCCO2 [US11839613, Example 400] | 37 | –
CCOc1cc(-c2cc(NCCc3ccc4sccc4c3C)ncn2)cc(F)c1CC(=O)O [US11839613, Example 372] | – | 111
CCCc1cc(-c2cc(NCCc3cc4c(cc3OC)OCCO4)ncn2)ccc1CC(=O)O [US11839613, Example 387] | – | 205

Source: BindingDB's records for patent US11839613 (Idorsia Pharmaceuticals, 2023)
